# Columns and labels:
# [1] = target: Protein-tyrosine kinase 6 (Homo sapiens, UniProt Q13882); test: Selectivity interaction (KinomeScan (DiscoverX)) EUB0001079a PTK6; conditions: at 1 µM
# [2] = target: Tyrosine-protein kinase HCK (Homo sapiens) (UniProt P08631); test: Selectivity interaction (KinomeScan (DiscoverX)) EUB0001079a HCK; conditions: at 1 µM
# [3] = target: Vascular endothelial growth factor receptor 3 (Homo sapiens, UniProt P35916); test: Selectivity interaction (KinomeScan (DiscoverX)) EUB0001079a FLT4; conditions: at 1 µM
# [4] = target: Serine/threonine-protein kinase B-raf (Homo sapiens) (UniProt P15056); test: (§1) Selectivity interaction (LanthaScreen Eu Kinase Binding Assay) EUB0001632a BRAF; conditions: at 10 µM
# [5] = test system: Serine/threonine-protein kinase B-raf (Homo sapiens), P15056 [V600E]; test: as §1; conditions: at 10 µM
# [6] = target: T1, MAP kinase-activated protein kinase 5 (Homo sapiens) (UniProt Q8IW41); test: Selectivity interaction (Kinase panel (Z-LYTE Assay)) EUB0001632a MAPKAPK5; conditions: at 10 µM
# T1 sequence (whole entry): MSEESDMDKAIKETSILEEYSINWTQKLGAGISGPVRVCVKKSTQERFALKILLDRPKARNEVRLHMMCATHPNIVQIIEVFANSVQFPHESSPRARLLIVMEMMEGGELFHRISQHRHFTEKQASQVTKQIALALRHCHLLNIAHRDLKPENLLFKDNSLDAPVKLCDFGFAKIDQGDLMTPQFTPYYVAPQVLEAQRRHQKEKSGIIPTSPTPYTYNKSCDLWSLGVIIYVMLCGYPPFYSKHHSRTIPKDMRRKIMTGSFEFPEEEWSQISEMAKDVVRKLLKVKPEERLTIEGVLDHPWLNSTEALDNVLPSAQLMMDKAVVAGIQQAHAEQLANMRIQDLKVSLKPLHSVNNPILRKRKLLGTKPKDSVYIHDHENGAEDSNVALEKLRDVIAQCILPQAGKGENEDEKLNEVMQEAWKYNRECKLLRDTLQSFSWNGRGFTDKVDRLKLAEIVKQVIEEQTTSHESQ
# [7] = target: T2, Protein kinase C iota type (Homo sapiens) (UniProt P41743); test: Selectivity interaction (ActivX KiNativ screen (kinase selectivity in THP-1 cell lysates)) EUB0000639a PRKCI; assay type: subcellular; conditions: lysate, at 1 µM
# T2 sequence (whole entry): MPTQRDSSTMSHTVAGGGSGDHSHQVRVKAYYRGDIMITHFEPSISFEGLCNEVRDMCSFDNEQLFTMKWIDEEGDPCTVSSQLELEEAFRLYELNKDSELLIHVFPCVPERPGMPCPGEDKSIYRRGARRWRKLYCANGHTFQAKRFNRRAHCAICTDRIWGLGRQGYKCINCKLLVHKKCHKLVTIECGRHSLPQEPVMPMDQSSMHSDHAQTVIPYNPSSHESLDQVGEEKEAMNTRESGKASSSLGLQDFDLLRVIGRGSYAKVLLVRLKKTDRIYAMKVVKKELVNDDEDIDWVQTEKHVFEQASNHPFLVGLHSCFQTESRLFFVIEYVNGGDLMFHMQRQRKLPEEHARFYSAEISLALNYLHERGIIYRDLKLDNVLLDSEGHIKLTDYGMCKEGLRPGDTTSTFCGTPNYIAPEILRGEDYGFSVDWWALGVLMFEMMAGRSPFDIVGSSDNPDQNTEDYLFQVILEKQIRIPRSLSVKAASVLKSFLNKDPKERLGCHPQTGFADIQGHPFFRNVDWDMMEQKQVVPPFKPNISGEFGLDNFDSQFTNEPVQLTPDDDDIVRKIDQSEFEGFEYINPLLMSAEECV
# [8] = target: Ribosomal protein S6 kinase beta-1 (Homo sapiens, UniProt P23443); test: Selectivity interaction (SelectScreen profiling (Invitrogen)) EUB0000607a RPS6KB1; conditions: at 2 µM
# [9] = target: Mitogen-activated protein kinase 11 (Homo sapiens) (UniProt Q15759); test: Selectivity interaction (SelectScreen profiling (Invitrogen)) EUB0000607a MAPK11; conditions: at 2 µM
# [10] = target: T3, Myosin light chain kinase (Homo sapiens) (UniProt Q32MK0); test: Selectivity interaction (KinomeScan (DiscoverX)) EUB0001049a MYLK3; conditions: at 1 µM
# T3 sequence (whole entry): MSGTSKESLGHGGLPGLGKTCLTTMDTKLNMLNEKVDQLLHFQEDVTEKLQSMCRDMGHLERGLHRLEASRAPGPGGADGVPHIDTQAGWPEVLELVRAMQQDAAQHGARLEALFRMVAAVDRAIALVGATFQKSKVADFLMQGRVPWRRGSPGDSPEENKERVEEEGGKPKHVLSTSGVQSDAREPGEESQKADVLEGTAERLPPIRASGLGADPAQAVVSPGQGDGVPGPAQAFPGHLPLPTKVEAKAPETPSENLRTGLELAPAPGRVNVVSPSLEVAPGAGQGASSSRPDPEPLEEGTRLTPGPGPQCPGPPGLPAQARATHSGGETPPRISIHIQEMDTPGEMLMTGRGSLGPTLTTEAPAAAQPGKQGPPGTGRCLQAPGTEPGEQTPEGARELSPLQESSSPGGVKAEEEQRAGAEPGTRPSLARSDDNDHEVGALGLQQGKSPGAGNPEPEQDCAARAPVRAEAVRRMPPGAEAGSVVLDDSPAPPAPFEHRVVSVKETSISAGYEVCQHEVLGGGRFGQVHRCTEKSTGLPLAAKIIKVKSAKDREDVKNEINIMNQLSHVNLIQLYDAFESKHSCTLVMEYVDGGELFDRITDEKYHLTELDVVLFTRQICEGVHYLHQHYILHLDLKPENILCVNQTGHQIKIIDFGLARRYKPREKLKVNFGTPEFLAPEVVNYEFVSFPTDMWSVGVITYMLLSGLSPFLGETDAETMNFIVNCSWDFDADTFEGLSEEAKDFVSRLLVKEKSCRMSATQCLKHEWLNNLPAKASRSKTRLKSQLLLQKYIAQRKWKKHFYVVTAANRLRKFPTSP
# [11] = target: Histone-lysine N-methyltransferase ASH1L (Homo sapiens) (UniProt Q9NR48); test: Selectivity interaction (Methyltransferase screen (radiometric assays, panel of 8 PRMTs, 21 protein lysine methyltransferases, 3 DNA methyltransferases, and one RNA methyltransferase)) EUB0000271b ASH1L
# Misshapen-like kinase 1 = Misshapen-like kinase 1 (Homo sapiens, UniProt Q8N4C8); test: Selectivity interaction (KinomeScan (DiscoverX)) EUB0000595a MINK1; conditions: at 10 µM
# Misshapen-like kinase 1, sequence (Q8N4C8 whole entry, looked up): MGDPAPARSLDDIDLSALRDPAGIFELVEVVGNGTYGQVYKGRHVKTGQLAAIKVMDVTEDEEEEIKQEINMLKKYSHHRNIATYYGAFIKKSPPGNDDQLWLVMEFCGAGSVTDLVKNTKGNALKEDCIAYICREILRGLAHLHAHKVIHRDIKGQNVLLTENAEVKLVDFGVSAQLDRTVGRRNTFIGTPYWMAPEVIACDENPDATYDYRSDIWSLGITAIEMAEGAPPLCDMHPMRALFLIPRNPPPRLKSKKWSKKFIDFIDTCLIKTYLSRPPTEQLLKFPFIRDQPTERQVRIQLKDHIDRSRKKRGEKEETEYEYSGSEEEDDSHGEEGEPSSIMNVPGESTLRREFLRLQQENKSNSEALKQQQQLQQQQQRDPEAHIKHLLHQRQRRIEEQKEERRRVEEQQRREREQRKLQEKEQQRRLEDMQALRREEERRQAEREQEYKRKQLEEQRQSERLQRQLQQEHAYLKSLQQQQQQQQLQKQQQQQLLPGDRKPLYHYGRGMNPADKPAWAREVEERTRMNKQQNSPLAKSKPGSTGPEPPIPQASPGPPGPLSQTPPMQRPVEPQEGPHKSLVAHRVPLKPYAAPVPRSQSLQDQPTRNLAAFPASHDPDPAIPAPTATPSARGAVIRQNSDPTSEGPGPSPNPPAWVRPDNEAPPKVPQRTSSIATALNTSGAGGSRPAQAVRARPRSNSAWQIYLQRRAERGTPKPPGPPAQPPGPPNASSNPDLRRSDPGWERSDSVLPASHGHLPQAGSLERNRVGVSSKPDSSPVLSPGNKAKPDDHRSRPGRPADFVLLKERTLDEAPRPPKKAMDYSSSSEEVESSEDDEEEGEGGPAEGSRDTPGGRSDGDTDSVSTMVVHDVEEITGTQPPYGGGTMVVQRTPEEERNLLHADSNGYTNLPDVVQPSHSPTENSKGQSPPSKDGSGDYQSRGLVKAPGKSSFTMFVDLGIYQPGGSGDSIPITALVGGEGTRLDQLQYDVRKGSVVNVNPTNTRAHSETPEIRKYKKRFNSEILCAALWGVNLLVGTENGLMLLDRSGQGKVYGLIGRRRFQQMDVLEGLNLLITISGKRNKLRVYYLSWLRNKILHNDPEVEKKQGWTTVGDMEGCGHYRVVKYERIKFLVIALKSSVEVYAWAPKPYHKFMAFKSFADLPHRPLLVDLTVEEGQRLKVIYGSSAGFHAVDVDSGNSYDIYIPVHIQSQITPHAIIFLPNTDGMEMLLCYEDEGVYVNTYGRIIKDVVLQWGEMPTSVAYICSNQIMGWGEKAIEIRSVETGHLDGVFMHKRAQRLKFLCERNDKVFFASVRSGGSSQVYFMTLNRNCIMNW
# Mitogen-activated protein kinase 11 (Homo sapiens), sequence (Q15759 whole entry): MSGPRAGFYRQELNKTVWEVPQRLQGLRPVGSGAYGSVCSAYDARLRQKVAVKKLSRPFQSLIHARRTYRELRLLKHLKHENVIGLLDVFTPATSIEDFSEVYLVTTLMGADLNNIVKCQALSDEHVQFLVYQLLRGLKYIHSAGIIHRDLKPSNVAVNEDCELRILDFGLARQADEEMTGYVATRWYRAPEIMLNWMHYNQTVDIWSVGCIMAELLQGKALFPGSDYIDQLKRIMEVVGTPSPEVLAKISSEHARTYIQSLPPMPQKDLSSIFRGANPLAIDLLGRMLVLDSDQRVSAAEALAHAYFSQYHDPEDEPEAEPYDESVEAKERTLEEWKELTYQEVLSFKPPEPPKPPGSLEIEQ
# Protein-tyrosine kinase 6, sequence (Q13882 whole entry, looked up): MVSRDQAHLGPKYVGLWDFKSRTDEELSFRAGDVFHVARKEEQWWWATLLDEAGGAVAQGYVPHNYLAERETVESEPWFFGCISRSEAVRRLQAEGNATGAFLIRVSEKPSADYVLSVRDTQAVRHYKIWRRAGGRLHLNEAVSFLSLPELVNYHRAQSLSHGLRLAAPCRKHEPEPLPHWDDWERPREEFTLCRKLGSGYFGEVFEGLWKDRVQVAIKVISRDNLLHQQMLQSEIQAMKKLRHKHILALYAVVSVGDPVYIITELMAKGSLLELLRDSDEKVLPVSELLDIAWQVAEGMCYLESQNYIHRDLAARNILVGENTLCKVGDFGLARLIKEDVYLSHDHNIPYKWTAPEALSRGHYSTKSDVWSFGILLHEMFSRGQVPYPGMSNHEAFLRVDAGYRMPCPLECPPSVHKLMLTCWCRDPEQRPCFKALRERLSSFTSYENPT
# Ribosomal protein S6 kinase beta-1, sequence (P23443 whole entry, looked up): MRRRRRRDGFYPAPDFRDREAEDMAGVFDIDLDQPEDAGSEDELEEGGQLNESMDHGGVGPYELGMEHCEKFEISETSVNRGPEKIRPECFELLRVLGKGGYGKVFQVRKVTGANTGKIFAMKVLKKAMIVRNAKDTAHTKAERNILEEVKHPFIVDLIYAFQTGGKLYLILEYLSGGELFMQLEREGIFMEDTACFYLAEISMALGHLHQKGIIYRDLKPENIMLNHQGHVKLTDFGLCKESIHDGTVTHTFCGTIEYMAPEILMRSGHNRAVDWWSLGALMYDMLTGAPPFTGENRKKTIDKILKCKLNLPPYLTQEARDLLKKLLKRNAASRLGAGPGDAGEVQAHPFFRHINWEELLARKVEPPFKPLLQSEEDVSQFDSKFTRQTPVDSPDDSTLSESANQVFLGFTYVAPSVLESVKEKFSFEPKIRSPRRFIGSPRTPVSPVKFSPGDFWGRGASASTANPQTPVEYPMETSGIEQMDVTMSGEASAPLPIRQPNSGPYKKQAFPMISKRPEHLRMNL
# Serine/threonine-protein kinase B-raf (Homo sapiens), sequence (P15056 whole entry): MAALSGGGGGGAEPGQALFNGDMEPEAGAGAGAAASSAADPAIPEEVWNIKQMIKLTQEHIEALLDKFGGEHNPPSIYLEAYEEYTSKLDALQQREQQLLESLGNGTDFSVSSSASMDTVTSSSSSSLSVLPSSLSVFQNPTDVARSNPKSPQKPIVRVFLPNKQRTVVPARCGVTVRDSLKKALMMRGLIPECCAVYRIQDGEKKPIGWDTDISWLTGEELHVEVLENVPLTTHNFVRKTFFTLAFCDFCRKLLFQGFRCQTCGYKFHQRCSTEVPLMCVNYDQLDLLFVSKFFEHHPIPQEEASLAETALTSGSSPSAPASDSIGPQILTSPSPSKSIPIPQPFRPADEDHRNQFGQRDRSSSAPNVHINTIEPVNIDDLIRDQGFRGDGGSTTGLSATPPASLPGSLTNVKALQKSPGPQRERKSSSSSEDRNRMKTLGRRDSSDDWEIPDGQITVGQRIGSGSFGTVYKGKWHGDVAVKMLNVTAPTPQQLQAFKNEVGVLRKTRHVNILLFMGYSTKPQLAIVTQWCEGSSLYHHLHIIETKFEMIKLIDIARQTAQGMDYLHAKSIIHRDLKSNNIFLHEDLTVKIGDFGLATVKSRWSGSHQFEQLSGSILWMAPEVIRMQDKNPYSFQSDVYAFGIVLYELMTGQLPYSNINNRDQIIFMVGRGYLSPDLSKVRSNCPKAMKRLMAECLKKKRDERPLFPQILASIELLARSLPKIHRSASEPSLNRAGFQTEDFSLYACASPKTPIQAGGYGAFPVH
# Vascular endothelial growth factor receptor 3, sequence (P35916 whole entry): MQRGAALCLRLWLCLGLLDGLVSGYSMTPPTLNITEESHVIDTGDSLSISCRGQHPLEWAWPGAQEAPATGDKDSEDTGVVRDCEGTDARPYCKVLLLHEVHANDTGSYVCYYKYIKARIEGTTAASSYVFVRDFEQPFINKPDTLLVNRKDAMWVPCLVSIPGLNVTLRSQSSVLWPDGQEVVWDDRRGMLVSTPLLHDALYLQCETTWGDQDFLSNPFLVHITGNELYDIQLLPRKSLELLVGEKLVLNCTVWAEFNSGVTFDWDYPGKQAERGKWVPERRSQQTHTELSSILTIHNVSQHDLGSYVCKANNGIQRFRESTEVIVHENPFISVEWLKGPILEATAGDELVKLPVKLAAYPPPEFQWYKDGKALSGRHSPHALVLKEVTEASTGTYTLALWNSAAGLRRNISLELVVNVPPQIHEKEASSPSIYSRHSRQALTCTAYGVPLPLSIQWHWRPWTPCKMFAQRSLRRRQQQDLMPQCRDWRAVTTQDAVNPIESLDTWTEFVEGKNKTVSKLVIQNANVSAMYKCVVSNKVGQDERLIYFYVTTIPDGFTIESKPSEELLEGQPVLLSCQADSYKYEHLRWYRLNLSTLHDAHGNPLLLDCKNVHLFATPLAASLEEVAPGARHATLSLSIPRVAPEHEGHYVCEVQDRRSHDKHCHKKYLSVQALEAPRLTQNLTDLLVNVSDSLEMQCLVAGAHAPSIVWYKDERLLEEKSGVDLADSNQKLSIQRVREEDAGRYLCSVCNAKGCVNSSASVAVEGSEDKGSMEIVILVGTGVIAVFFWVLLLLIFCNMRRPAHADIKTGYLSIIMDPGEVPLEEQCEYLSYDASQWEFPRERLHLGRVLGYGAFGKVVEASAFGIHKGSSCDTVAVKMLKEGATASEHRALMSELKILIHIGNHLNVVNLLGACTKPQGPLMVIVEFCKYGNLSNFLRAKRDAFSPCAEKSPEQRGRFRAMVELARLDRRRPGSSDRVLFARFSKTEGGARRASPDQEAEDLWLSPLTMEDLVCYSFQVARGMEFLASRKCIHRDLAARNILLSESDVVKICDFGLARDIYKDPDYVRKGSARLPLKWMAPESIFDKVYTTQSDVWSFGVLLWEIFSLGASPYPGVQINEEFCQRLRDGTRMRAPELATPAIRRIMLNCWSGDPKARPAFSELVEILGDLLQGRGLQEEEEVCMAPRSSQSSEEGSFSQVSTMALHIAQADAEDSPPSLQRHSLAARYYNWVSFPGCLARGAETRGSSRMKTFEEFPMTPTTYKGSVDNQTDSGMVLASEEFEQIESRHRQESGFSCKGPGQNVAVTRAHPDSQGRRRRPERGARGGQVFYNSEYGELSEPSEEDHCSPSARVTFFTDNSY
# Serine/threonine-protein kinase B-raf (Homo sapiens), P15056 [V600E], sequence (P15056 whole entry V600E): as the sequence (P15056 whole entry) above, with V600E counted along it
smiles,measurement,setting,value
Nc1cnc(N2CCc3cc(S(=O)(=O)Nc4c(F)cc(Cl)cc4F)cc(N4CCCC4=O)c32)nc1 [TP-020n],% of control,[1],100%
same,% of control,[2],100%
same,% of control,[3],86%
Cn1cc(-n2cnc3c(NCc4nc5cc(Cl)c(Cl)cc5[nH]4)nc(N4CCOCC4)nc32)cn1,% of inhibition,[4],5.68%
same,% of inhibition,[5],9.14%
same,% of control,[6],7.02%
CC[C@@H]1[C@H](F)C(=O)N[C@@H]1COc1nccc2cc(C(N)=O)c(OC)cc12 [ZIMLOVISERTIB],% of inhibition,[7],2.2%
CNC(=O)Nc1ccc(-c2nc(N3CC4CCC(C3)O4)c3cnn(C4CCC5(CC4)OCCO5)c3n2)cc1,% of inhibition,[8],2%
same,% of inhibition,[9],2%
COc1cc(Nc2nc(C)cc(-c3cnn4nc(OC)ccc34)n2)cc(C(F)(F)F)c1,% of control,[10],82%
Cc1cc(C)cc([C@@H]2c3cc(C)ccc3NC(=O)CN2C(=O)c2ccc(Br)s2)c1,% of activity,[11]; at 1 µM,97.3%
same,% of activity,[11]; at 10 µM,105%
COCC(=O)NC/C=C/c1ccc2ncnc(Nc3ccc(Oc4ccc(C)nc4)c(C)c3)c2c1 [CP-724714],% of control,Misshapen-like kinase 1,77%
